# Experimental data reported in PubChem BioAssay (NCI).
#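 Briefly, cells in 96-well plates were exposed to five compound concentrations for 48 h, and endpoints were estimated by linear interpolation. TGI denotes the concentration required for complete inhibition of growth.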
# Columns and labels:
# Experiment in all cases: inhibition of tumour cell growth, NCI panel, 48 h
# OVCAR-8 ovarian = tested on: OVCAR-8 ovarian
# NCI-H226 lung = tested on: NCI-H226 lung
# A549 NSCLC = tested on: A549 NSCLC
# M14 melanoma = tested on: M14 melanoma
# ACHN renal = tested on: ACHN renal
# SNB-75 CNS = tested on: SNB-75 CNS
# EKVX NSCLC = tested on: EKVX NSCLC
# MALME-3M melanoma = tested on: MALME-3M melanoma
# MDA-MB-231 breast = tested on: MDA-MB-231 breast
# MCF7 breast = tested on: MCF7 breast
# PC-3 prostate = tested on: PC-3 prostate
SMILES,TGI (OVCAR-8 ovarian) [µM],TGI (NCI-H226 lung) [µM],TGI (A549 NSCLC) [µM],TGI (M14 melanoma) [µM],TGI (ACHN renal) [µM],TGI (SNB-75 CNS) [µM],TGI (EKVX NSCLC) [µM],TGI (MALME-3M melanoma) [µM],TGI (MDA-MB-231 breast) [µM],TGI (MCF7 breast) [µM],TGI (PC-3 prostate) [µM]
NC(=O)N/N=C(\Cc1nc2ccc(C(=O)c3ccccc3)cc2[nH]c1=O)C(=O)Nc1ccc(Br)cc1,> 100,> 100,> 100,> 100,> 100,> 100,> 100,> 100,,,
COc1cc(/C=C2\N=C(c3ccccc3)N(C3Nc4cc5c(cc4S3)NC(N3C(=O)/C(=C/c4cc(OC)c(OC)c(OC)c4)N=C3c3ccccc3)S5)C2=O)cc(OC)c1OC (stereo not given),> 100,> 100,> 100,> 100,> 100,> 100,> 100,,> 100,> 100,> 100
Nc1nc2c(ncn2CCOC(c2ccccc2)P(=O)(O)O)c(=O)[nH]1 (stereo not given),> 100,> 100,> 100,,> 100,> 100,> 100,> 100,,,
CCc1cccc(C(C)C)c1NC(=O)C(=O)C(C(=O)C(=O)OC)c1nc2ccccc2[nH]c1=O (stereo not given),> 100,> 100,> 100,> 100,> 100,> 100,> 100,> 100,,,
Oc1ccc(-c2nc3cc(C(F)(F)F)ccc3n2CC2CCCN3CCCCC23)cc1 (stereo not given),29.5,32.2,,32.3,28.3,32.4,31,,27.6,25.2,27.1
CC1=C(C2=C(C)C(=O)C(=O)c3cc(C)ccc32)c2ccc(C)cc2C(=O)C1=O,0.54,6.48,2.73,0.349,0.354,0.868,0.686,0.435,0.91,,1.04
CCSc1nc2sc(C)c(C)c2c(=O)n1-c1ccc(C(=O)O)cc1,> 100,86.2,> 100,> 100,> 100,70,> 100,> 100,,,
Cc1cc(Cc2cc(C)c(NC(=O)C(=O)C3C(=O)NC(=S)NC3=O)c(C(C)C)c2)cc(C(C)C)c1NC(=O)C(=O)C1C(=O)NC(=S)NC1=O,> 100,> 100,> 100,> 100,> 100,> 100,> 100,> 100,,,
CN(C)C(=O)CC(C(=O)O)c1c[nH]c2ccccc12 (stereo not given),> 100,,> 100,> 100,> 100,> 100,> 100,> 100,,,
Oc1ccc2c(c1)OCC(O)(c1ccccc1O)C2 (stereo not given),> 100,> 100,,> 100,> 100,> 100,> 100,,> 100,> 100,> 100
CC1=C(C(=O)OCCO[N+](=O)[O-])C(c2ccccc2C(F)(F)F)C(C(=O)OC(C)C)=C(C)N1 (stereo not given),64.7,27.4,> 100,31.4,> 100,,97.9,58.1,23.5,75.1,34.5
CCOC(=O)c1c(C)n(Cc2ccccc2)c2c1cc(O)c1[nH]c3c(c12)CCCC3,20.6,,19.6,20.9,23.9,,8.12,15.6,19,13.3,9.92
O=C(O)c1c(CC(Cc2ccc3c(c2)CCCC3)C(=O)O)ccc2c1CCCC2 (stereo not given),> 100,> 100,> 100,> 100,> 100,> 100,> 100,> 100,> 100,,> 100
CCCCCCCCCCCCCCCCCCNc1ccn(C2OC(COP(=O)(O)O)C(O)C2O)c(=O)n1 (stereo not given),> 100,> 100,> 100,> 100,> 100,> 100,> 100,,> 100,> 100,> 100
COc1ccc(/C=C2\CN(C)CC3=C2OC(N)=C(C#N)C3c2ccc(OC)cc2)cc1 (stereo not given),> 100,> 100,> 100,> 100,> 100,,> 100,58.1,> 100,> 100,> 53.1
N#CCCC(CC#N)N1CCN(CCO)CC1 (stereo not given),> 100,> 100,> 100,> 100,> 100,> 100,> 100,> 100,> 100,> 100,
Cc1cc2c(cc1O)CC[C@@H]1[C@@H]2CC[C@]2(C)[C@@H](O)CC[C@@H]12,51.7,,> 100,21.4,51.9,23.9,,19.4,21.8,26.1,37.7
O=c1nc2n(cc1/C=C\Br)C1CC(O)C(CO2)O1 (stereo not given),> 100,> 100,> 100,,> 100,> 100,> 100,> 100,> 100,> 100,
C/C(Cl)=N\OC(=O)Nc1ccccc1C(F)(F)F,> 100,,> 100,,35.2,> 100,57.6,48.1,46.9,61.5,> 100
CCCCCCOc1ccc(NC2=C(Cl)C(=O)c3cccnc3C2=O)cc1,4.56,3.58,4.25,2.87,4.38,2.79,3.22,4.85,,2.65,> 10
O=C1CC(Br)c2c(Cl)sc(Cl)c21 (stereo not given),10.4,,45.4,26.5,24.6,30.5,48.2,25.6,22.7,13.8,23.4
